# Data published in publication PMC8467576, “Novel Ubiquitin Specific Protease-13 Inhibitors Alleviate Neurodegenerative Pathology” (Metabolites, 2021).
# Biological target: T1, USP13 (Homo sapiens, UniProt Q92995)
# T1 construct: ELISA for USP13 (MyBioSource, Cat # MBS9335287, San Diego, CA, USA); endogenous in cells; host or cells: human SH-SY5Y neuroblastoma cells transfected with human wild-type alpha-synuclein
# T1 sequence (Q92995 1-863): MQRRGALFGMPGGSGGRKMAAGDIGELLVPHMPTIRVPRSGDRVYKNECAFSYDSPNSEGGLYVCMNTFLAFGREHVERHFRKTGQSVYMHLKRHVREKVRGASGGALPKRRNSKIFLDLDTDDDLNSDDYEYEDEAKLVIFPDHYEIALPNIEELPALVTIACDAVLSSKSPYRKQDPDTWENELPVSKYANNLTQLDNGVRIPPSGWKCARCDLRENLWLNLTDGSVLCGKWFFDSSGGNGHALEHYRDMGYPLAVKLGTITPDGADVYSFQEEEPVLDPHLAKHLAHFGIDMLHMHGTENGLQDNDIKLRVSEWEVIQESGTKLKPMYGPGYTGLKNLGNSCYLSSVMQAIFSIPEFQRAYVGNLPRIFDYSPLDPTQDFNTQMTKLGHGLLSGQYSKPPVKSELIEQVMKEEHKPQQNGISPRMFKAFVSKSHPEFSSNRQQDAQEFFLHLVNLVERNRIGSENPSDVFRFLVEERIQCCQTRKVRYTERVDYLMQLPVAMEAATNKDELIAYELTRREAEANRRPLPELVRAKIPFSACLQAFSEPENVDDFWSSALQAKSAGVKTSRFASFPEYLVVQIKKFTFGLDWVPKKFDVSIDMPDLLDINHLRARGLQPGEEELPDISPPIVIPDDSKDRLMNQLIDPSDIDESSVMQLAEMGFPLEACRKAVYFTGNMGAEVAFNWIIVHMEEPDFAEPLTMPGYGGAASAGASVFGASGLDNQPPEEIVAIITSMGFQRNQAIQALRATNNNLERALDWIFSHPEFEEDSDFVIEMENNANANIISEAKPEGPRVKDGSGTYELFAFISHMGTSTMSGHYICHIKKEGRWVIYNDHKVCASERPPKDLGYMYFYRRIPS
# Experiment: USP13 activity via functional ELISA in alpha-synuclein transfected SH-SY5Y cells
# Assay type: cell-based
# Details: SH-SY5Y cells transfected with human alpha-synuclein, 5 h, read-out: Estimated IC50 to USP13
# Description: Stably transfected human neuroblastoma SH-SY5Y cells with human wild-type alpha-synuclein were treated with 1 mM, 100 µM, 10 µM, 1 µM, 0.1 µM, 0.01 µM and 0.001 µM of each of BK50118-A, BK50118-B, BK50118-C, CL3-499, CL3-512 and CL3-514 dissolved in an equivalent volume of DMSO for 5 h. […] The other 5 compounds were also able to lower alpha-synuclein levels but with less potency (Figure 3H,I,K–M).
# SH-SY5Y cells were transiently transfected for 24 h with human wild-type α-synuclein using Fugene HD transfection reagent (Promega, E2311, Madison, WI, USA) according to manufacturer’s protocol. Cells were treated with 1 mM, 0.1 mM, 0.01 mM, 1 µM, 0.1 µM, 0.01 µM and 0.001 µM of each novel compounds (BK50118-A, BK50118-B, BK50118-C, CL3-499, CL3-512 and CL3-514) dissolved in DMSO for 5 h. Cells were then harvested on ice by removing culture medium and adding 0.2 mL 1x sodium-tris, EDTA, NP-40 (STEN) buffer (50 mM Tris (pH 7.6), 150 mM NaCl, 2 mM EDTA, 0.2 % NP-40, 0.2 % with Halt protease and phosphatase inhibitor solution (ThermoFisher, 78446). Cells were detached with a cell scraper and collected into centrifuge tubes and incubated at 4 °C for 30 min with agitation. Samples were stored at −80 °C and used for ELISA analyses. For cell viability assay, SHSY-5Y cells stably expressing human wild-type alpha-synuclein were treated with 1 mM, 0.1 mM, 0.01 mM, 1 µM, 0.1 µM, 0.01 µM and 0.001 µM of each novel compound (BK50118-A, BK50118-B, BK50118-C, CL3-499, CL3-512 and CL3-514) dissolved in DMSO for 5 h. Cell viability was determined via lactate dehydrogenase assay on culture media (Thermofisher, 88954) and MTT assay on plated cells (Thermofisher, V13154).
# The ELISA for USP13 (MyBioSource, Cat # MBS9335287, San Diego, CA, USA), Human alpha-synuclein (Biolegend, Cat # 844101, San Diego, CA, USA) and specific p-Tau ser396 (Invitrogen, KHB7031, Waltham, MA, USA) were performed on cell or brain tissue extracts as described above according to manufacturers’ protocol.
# All statistical analyses were performed using GraphPad Prism version 5.0 (GraphPad software, Inc, San Diego, CA, USA). Two-tailed student’s t-test was used in comparison of means of two groups. Ordinary one-way analysis of variance (ANOVA) followed by Newman–Keuls or Dunnett comparison post hoc tests were used in comparison of means of multiple groups. Asterisks denote actual p-value significances (* < 0.05, ** < 0.01, *** < 0.001 and **** < 0.0001), and N is the number of animals or the number of independent experiments (cell culture) per group. Unless otherwise indicated, data are expressed as Mean ± SD. IC50 to USP13 levels was also estimated using GraphPad Prism version 5.0 (GraphPad software, Inc, San Diego, CA, USA).
structure (smiles),measurement,value
"Fc1ccc2nccc(OCc3ccccc3)c2c1 [BK50118-C, 4-benzyloxy-6-fluoroquinoline]",IC50,0.42 nM
